These results are taken from patent US20120283096A1, “AGENT FOR IMPROVING PLANT GROWTH, SEEDS, AND METHOD FOR IMPROVING PLANT GROWTH” (Incorporated Administrative Agency National Agricu lture …, priority 2010, published 2012).

“Also recorded” adds a separate entry of the source. Read-outs that look alike come from different tables or passages of the source. Where only a bound is given, the exact number is not on record here.

One series relates to paddy seeds. Description: Possibility of growth of paddy seeds in tank farming without soil (Example 3). Particulars: in vivo. The procedure:
The decay-inhibiting effect of molybdenum-containing substances in tank farming without soil was examined.
The possibility of growth and the inhibition of decay were determined in the same manner as above.

The test system of series [1] is paddy rice. The series can be described thus: Seedling establishment of coated paddy seeds in submerged soil containers (Examples 4-1 to 4-4b, FIGS. 11, 14-19c). The format is in vivo. Particulars: germinated seeds, 30° C. Here is the method:
The germinated paddy seeds were soaked for one minute in a tenfold diluted solution of a commercially available laundry starch (manufactured by Rocket Soap Co., Ltd.; My Laundry Starch) containing approximately a little less than 10% by weight of polyvinyl alcohol, centrifuged at 1000 rpm for removal of the extra solution, and, immediately after that, lightly covered with different amounts of ammonium molybdophosphate, whereby seeds with different amounts of ammonium molybdophosphate were prepared.
It should also be noted that in each of FIGS. 14 through 15b, the horizontal axis represents the number of moles (mmol) of molybdenum or tungsten that adhered per gram of dry seed. In each of FIGS. 14 through 15b, the dots correspond to the numbers of moles of 0, 0.02, 0.05, 0.1, 0.2, 0.5, 1, and 2 mmol, starting from the left.
It should be noted that in each of FIGS. 16 through 18, the horizontal axis represents the number of moles (mmol) of molybdenum that adhered per gram of dry seed. In each of FIGS. 16 through 18, the dots correspond to the numbers of moles of 0, 0.02, 0.05, 0.1, 0.2, 0.5, 1, and 2 mmol, starting from the left.
It should be noted that in FIG. 19a, the horizontal axis represents the number of moles (mmol) of molybdenum that adhered per gram of dry seed. In FIG. 19a, the dots correspond to the numbers of moles of 0, 0.02, 0.05, 0.1, 0.2, 0.5, 1, and 2 mmol, starting from the left.
The resulting seeds were allowed to spend time in a sufficiently wet condition so that the iron rusted, and then allowed to further spend overnight. […] Six containers were allotted for each condition, and the proportion of seedling establishment and the standard error were examined. It should be noted that in FIG. 19b, the horizontal axis represents the number of moles (mmol) of molybdenum that adhered per gram of dry seed. In FIG. 19b, the dots correspond to the numbers of moles of 0, 0.02, 0.05, 0.1, 0.2, 0.5, 1, and 2 mmol, starting from the left.
Six containers were allotted for each condition, and the proportion of seedling establishment and the standard error were examined. It should be noted that in FIG. 19c, the horizontal axis represents the actual weight ratios of 25 wt % calcium peroxide that adhered with respect to the weight of dry seed. In FIG. 19c, the dots correspond to the actual weight ratios of 25 wt % calcium peroxide of 0, 0.01, 0.02, 0.05, 0.1, 0.2, 0.5, and 1 time, starting from the left.

Series [2] relates to paddy rice. The series can be described thus: Seedling establishment of coated paddy seeds planted in a paddy field (Example 4-5, FIG. 22). In kind it is in vivo. Particulars: dry seeds coated with clay plus 0.1 mmol/g molybdenum; kept submerged, about one month after seeding; versus WITHOUT MATERIAL and oxygen generating agent (Cal); trihydrate. The procedure:
Dry paddy seeds (branded as Hinohikari) were prepared.
Separately, dry seeds (WITHOUT MATERIAL) coated solely with clay containing no molybdenum were also prepared. Furthermore, dry seeds (Cal) coated with an oxygen generating agent (Calper Powder 16, Hodogaya UPL Co., Ltd.) the same weight per dry seeds were also prepared. Calper Powder 16 is an oxygen generating agent composed mainly of calcium peroxide.
These dry seeds were planted in puddled soil in a paddy field in Chikugo City, Fukuoka Prefecture, by using a simultaneous puddling and planting point sowing machine. By preparing the seeds as described above and planting them by using a point sowing machine, the amount of seeding per unit area of the paddy field can be substantially uniformed. It should be noted that prior to soil puddling, 4 g/m^2 of ammonium sulfate as nitrogen and potassium sulfate containing potassium equivalent to 8 g/m^2 as potassium oxide had been applied to the paddy field. After seeding, the seeds were kept submerged without draining the water.

Series [3] concerns barley. The series can be described thus: Seedling establishment of barley seeds with ammonium molybdophosphate (Example 5, FIG. 12). The format is in vivo. The following applies: 20° C. and 30° C., after two weeks. Here is the method:
As in Example 4-1, ammonium sulfate in an equivalent amount of 10 g/m^2 in terms of nitrogen and potassium chloride equivalent to 5 g/m^2 of potassium as potassium oxide were added as a solution to paddy humid soil, on the condition that the weight of dry soil is 100 kg/m^2. The soil was placed into each container (in the shape of a cylinder approximately 7 cm in diameter) in an amount equivalent to 100 g of dry soil, shaken for approximately one hour, and left at rest for two days at 4° C. It should be noted, however, that the soil-to-liquid ratio was 0.7. On this condition, the soil surface became substantially as high as the water surface. Barley seeds (branded as Nishinochikara) and soybean seeds (branded as Fukuyutaka) not subjected to treatment such as soaking in advance were soaked in water for one minute. Immediately after the extra water was removed, the seeds were put with a […] molybdenum amount of ammonium molybdophosphate (purchased from Wako Pure Chemical Industries, Ltd.) per gram of dry seed. The seeds were then half-buried in the samples of soil. […] Six containers were allotted for each condition, and the proportion of seedling establishment (proportion of individual plants that survived) was measured after two weeks.

Series [4] has as its system barley. The series can be described thus: Seedling establishment of barley seeds in humid soil (Example 6-1, FIG. 20a). Particulars: 0.01 mmol to 0.5 mmol molybdenum per gram of dry seed, 20° C., after two weeks. The format is in vivo. The procedure: (§1) As in Example 4-1, ammonium sulfate in an equivalent amount of 10 g/m^2 in terms of nitrogen and potassium chloride equivalent to 5 g/m^2 of potassium as potassium oxide were added as a solution to paddy humid soil in terms of 100 kg/m^2 of dry soil with a soil-to-liquid ratio of 0.7. The soil was placed into each container (in the shape of a cylinder approximately 7 cm in diameter) in an amount equivalent to 100 g of dry soil. The soil surface was flattened by giving it a slight press with a flat plate. Then, the soil was left at rest for one day at 4° C. […] The seeds were then half-buried in the soil. After that, at a constant temperature of 20° C., the water level was kept by adding water to such an extent that the seeds were slightly covered with water. Six containers were allotted for each condition, and the proportion of seedling establishment (proportion of individual plants that survived) was measured after two weeks. It should be noted that in each of FIGS. 20a and 20b, the horizontal axis represents the number of moles (mmol) of molybdenum that adhered per gram of dry seed. In each of FIGS. 20a and 20b, the dots correspond to the numbers of moles of 0, 0.01, 0.02, 0.05, 0.1, 0.2, and 0.5 mmol, starting from the left. […]

A further series relates to wheat. Description: Seedling establishment of wheat seeds in humid soil (Example 6-1, FIG. 20b). The following applies: 0.01 mmol to 0.5 mmol molybdenum per gram of dry seed, 20° C., after two weeks. In kind it is in vivo. Here is the method: as §1
For series [5] the following is noted: in water, powder, trihydrate, cited from earlier work.

On to “Triammonium 12-moblydo(VI)phosphate trihydrate [Ammonium molybdophosphate]”, for which the Possibility of growth, Amount of molybdenum or tungsten added to seed with paddy seeds was over 1 mmol/g. Besides, the “molybdenum or tungsten amount leading to improvements in proportion of seedling establishment” value with paddy rice [1] (polyvinyl alcohol adhesive, compared with 0 mmol/g) is reported as ≥ 0.02 mmol per gram of dry seeds. Moreover, the “proportion of seedling establishment” value in the series on paddy rice [1] (molybdenum amount of 0.5 mmol/g or more, FIG. 11) was about 80%; with barley [3], “improvements in proportion of seedling establishment”; in the series with barley [4] it was “improvements in proportion of seedling establishment”; in the series on wheat, “improvements in proportion of seedling establishment”. Besides, the seedling establishment entry with paddy rice [2] is “obvious improvements in seedling establishment; also recorded: most remarkable improving effect on seedling establishment”. Moreover, the Water solubility entry is recorded as “slightly soluble” in series [5] (listed as ammonium molybdophosphate) and “Slightly soluble (has a percentage of solubility of 10% by weight or lower with respect to water)” in series [5].
